We go through 9 compounds from ChEMBL document CHEMBL1201862, “PubChem BioAssay data set” (2004).

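Step 1: Grow cells in 96-well plates. Step 2: Expose to compound for 48 hours at 5 concentrations. Step 3: Interpolate endpoints linearly; if unreached, use highest concentration. GI50 marks 50% less growth.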 Activity calls are given as the source filed them. Cut-off read from the data, not from the text of the source: active = GI50 up to about 1.1 µM and inactive = higher. Some results are limits rather than exact numbers.

Test systems include HCC 2998; EKVX; NCI/ADR-RES; A498; Malme-3M; LOX IMVI; UACC-62; NCI-H23; MOLT-4; MDA-MB-435; MDA-MB-231; HL-60; SK-MEL-28; COLO 205; OVCAR-5; U-251; RPMI-8226; KM12; Hs-578T.
Common to all, as to test: NCI-60 cell line screen, 48 h

Consider `O=c1cc(/N=N/c2ccc(O)cc2)[nH]c(=O)[nH]1`, for which the GI50 is 29.7 µM (inactive) in the experiment on HCC 2998; > 100 µM (inactive) in the experiment on EKVX; > 100 µM (inactive) in the experiment on NCI/ADR-RES; > 100 µM (inactive) with A498; 28.8 µM (inactive) in the experiment with Malme-3M; 79.6 µM (inactive) in the experiment on LOX IMVI. Besides, the GI50 in the experiment with UACC-62 is 60.7 µM (inactive); in the experiment on NCI-H23 it was > 100 µM (inactive); with MOLT-4, > 100 µM (inactive); with MDA-MB-435 it was > 100 µM (inactive); with MDA-MB-231, > 100 µM (inactive); with HL-60, > 100 µM (inactive). Moreover, the GI50 in the experiment on SK-MEL-28 was > 100 µM (inactive); in the experiment on COLO 205 it was > 100 µM (inactive); with OVCAR-5 it was > 100 µM (inactive); in the experiment with U-251 it was 60.8 µM (inactive); with RPMI-8226 it was > 100 µM (inactive); in the experiment on KM12, 16.9 µM (inactive).

Regarding `O=C1/C(=C/c2ccccc2)CCc2ccc(Cl)nc21`, the GI50 with HCC 2998 is 17 µM (inactive); in the experiment on EKVX, 17.9 µM (inactive); in the experiment with NCI/ADR-RES it was 19.6 µM (inactive); in the experiment on A498, 18.3 µM (inactive); with Malme-3M, 11 µM (inactive); in the experiment on LOX IMVI, 2.19 µM (inactive). Besides, the GI50 is 10.4 µM (inactive) in the experiment on UACC-62; 16.6 µM (inactive) in the experiment on NCI-H23; 2.28 µM (inactive) with MOLT-4; 6.5 µM (inactive) in the experiment on MDA-MB-435; 15.2 µM (inactive) with MDA-MB-231; 0.0168 µM (active) in the experiment with HL-60. Also, the GI50 in the experiment on SK-MEL-28 was 14.7 µM (inactive); with COLO 205, 19.7 µM (inactive); in the experiment on OVCAR-5, 17.3 µM (inactive); in the experiment on U-251 it was 3.11 µM (inactive); in the experiment with RPMI-8226 it was 2.84 µM (inactive); in the experiment on KM12, 2.59 µM (inactive).

Regarding `CCCCS(=O)(=O)CCC(N)P(=O)(O)O` (configuration not stated), the GI50 in the experiment with Hs-578T, in the experiment on EKVX, in the experiment on NCI/ADR-RES, in the experiment with Malme-3M, in the experiment with LOX IMVI and in the experiment with UACC-62 was > 100 µM (inactive) throughout. Besides, the GI50 in the experiment on NCI-H23, with MOLT-4, in the experiment with MDA-MB-435, in the experiment with HL-60, with SK-MEL-28 and in the experiment with COLO 205 was > 100 µM (inactive) throughout. The GI50 with OVCAR-5, in the experiment on U-251, in the experiment on RPMI-8226 and in the experiment with KM12 was > 100 µM (inactive) throughout.

For the compound `O=C(NC(Cc1ccccc1)P(=O)(O)c1ccccc1)OCc1ccccc1` (configuration not stated), the GI50 with Hs-578T, in the experiment on EKVX, in the experiment on NCI/ADR-RES, in the experiment on Malme-3M, in the experiment on LOX IMVI and with UACC-62 was > 100 µM (inactive) in each case. In addition, the GI50 with NCI-H23, in the experiment on MOLT-4, in the experiment with MDA-MB-435, with HL-60, in the experiment on SK-MEL-28 and in the experiment on COLO 205 was > 100 µM (inactive) each time. Further, the GI50 with OVCAR-5, with U-251, in the experiment with RPMI-8226 and in the experiment with KM12 was > 100 µM (inactive) each time.

On to `O=C(/C=C/c1cccc([N+](=O)[O-])c1)N1CCN(CCOC(c2ccccc2)c2ccccc2)CC1`, for which the GI50 is 23.7 µM (inactive) with HCC 2998; > 100 µM (inactive) in the experiment with EKVX; 48.6 µM (inactive) with NCI/ADR-RES; 50.7 µM (inactive) in the experiment on A498; 31.8 µM (inactive) with Malme-3M; 22.9 µM (inactive) with LOX IMVI. Besides, the GI50 in the experiment on UACC-62 was 33.8 µM (inactive); in the experiment with NCI-H23, 43.6 µM (inactive); in the experiment on MOLT-4, 12.4 µM (inactive); in the experiment on MDA-MB-435, 33.4 µM (inactive); in the experiment on SK-MEL-28, 25.9 µM (inactive); with COLO 205 it was 21.7 µM (inactive). Also, the GI50 with OVCAR-5 is > 100 µM (inactive); in the experiment with RPMI-8226, 12.3 µM (inactive); in the experiment on KM12 it was 26.9 µM (inactive).

With `COC(=O)C([C@H]1CC[C@H](OCc2ccccc2)[C@@]1(O)COCc1ccccc1)C(C)(O)CCc1ccccc1` (some centres not stated), the GI50 in the experiment on HCC 2998 is 14 µM (inactive); in the experiment with EKVX it was 8.57 µM (inactive); with NCI/ADR-RES, 4.06 µM (inactive); in the experiment with A498, 15 µM (inactive); with Malme-3M it was 11.5 µM (inactive); with LOX IMVI, 8.47 µM (inactive). Moreover, the GI50 is 13.2 µM (inactive) with UACC-62; 15.4 µM (inactive) with NCI-H23; 3.63 µM (inactive) with MOLT-4; 14.4 µM (inactive) in the experiment with MDA-MB-435; 12 µM (inactive) in the experiment on MDA-MB-231; 15.3 µM (inactive) with SK-MEL-28. For the same compound, the GI50 in the experiment on COLO 205 is 12.2 µM (inactive); with OVCAR-5, 13.5 µM (inactive); with U-251, 11.6 µM (inactive); in the experiment on RPMI-8226, 9.89 µM (inactive); in the experiment with KM12 it was 3.32 µM (inactive).

As to `CC(C)=NNc1cnnc2ccc([N+](=O)[O-])cc12`, the GI50 in the experiment on Hs-578T is > 100 µM (inactive); with EKVX, > 100 µM (inactive); in the experiment on NCI/ADR-RES, > 100 µM (inactive); in the experiment with Malme-3M it was 63.8 µM (inactive); in the experiment with NCI-H23 it was > 100 µM (inactive); with MOLT-4, 37.2 µM (inactive). The GI50 in the experiment with MDA-MB-435 is 67.8 µM (inactive); in the experiment on MDA-MB-231, 59.7 µM (inactive); with HL-60, 16.3 µM (inactive); in the experiment on COLO 205, 36.6 µM (inactive); in the experiment on OVCAR-5 it was > 100 µM (inactive); in the experiment with U-251, > 100 µM (inactive). Also, the GI50 in the experiment with RPMI-8226 is 31.6 µM (inactive); in the experiment on KM12, > 100 µM (inactive).

Turning to `C[C@H](CCC(=O)O)[C@H]1CC[C@H]2[C@@H]3[C@@H](O)C[C@@H]4C[C@H](O)CC[C@]4(C)[C@H]3CC[C@]12C` [URSODIOL], the GI50 with HCC 2998, with EKVX, with NCI/ADR-RES, in the experiment with A498, with Malme-3M and in the experiment on LOX IMVI was > 100 µM (inactive) in each case. For the same compound, the GI50 with UACC-62 is > 100 µM (inactive); with NCI-H23, > 100 µM (inactive); in the experiment with MOLT-4, 47.4 µM (inactive); with MDA-MB-435, > 100 µM (inactive); in the experiment with MDA-MB-231 it was > 100 µM (inactive); with HL-60, > 100 µM (inactive). The GI50 is > 100 µM (inactive) in the experiment with SK-MEL-28; > 100 µM (inactive) in the experiment with COLO 205; > 100 µM (inactive) with OVCAR-5; > 100 µM (inactive) in the experiment with U-251; 97.9 µM (inactive) in the experiment on RPMI-8226; > 100 µM (inactive) in the experiment with KM12.

Turning to `O=[N+]([O-])c1ccc(/C=C(/c2ccc([N+](=O)[O-])o2)S(=O)(=O)c2ccccc2)o1`, the GI50 is 15.4 µM (inactive) in the experiment with Hs-578T; 0.0885 µM (active) in the experiment on EKVX; 18 µM (inactive) in the experiment with NCI/ADR-RES; 2.45 µM (inactive) in the experiment with Malme-3M; 6.17 µM (inactive) with UACC-62; 19.7 µM (inactive) with NCI-H23. In addition, the GI50 in the experiment on MDA-MB-435 is 15.2 µM (inactive); with MDA-MB-231, 3.19 µM (inactive); with HL-60 it was 2.75 µM (inactive); in the experiment with SK-MEL-28, 15.6 µM (inactive); with COLO 205 it was 2.13 µM (inactive); in the experiment with OVCAR-5, 18.6 µM (inactive). In addition, the results for the GI50 with U-251, in the experiment with RPMI-8226 and with KM12 were 15.9 µM (inactive), 0.128 µM (active) and 17.7 µM (inactive), respectively.
